Experimental data published in paper PMC5435687 (Scientific Reports, 2017).
Several values for one entry are separate records, joined by “and”; a condition that tells them apart may be missing. Identical values can stand only once.

Columns and labels:
SH-SY5Y cells [1] = assay: Confocal imaging based quantification of cellular uptake of Aβ; assay type: cell-based, human; details: for number of internalised Aβ peptides per cell (rounded): SH-SY5Y, 1 µM peptide, 8 h, imaging-based quantification, order-of-magnitude statement; for intravesicular Aβ concentration: re-calculated from molecules per cell (1 µM, 8 h) under assumption of total lysosomal load of 10 μm^3 per cell
Description: The samples were washed 1x in serum free medium prior to incubation with Aβ peptides and/or other reagents also in serum free medium that was supplemented with 30 mM HEPES and 2% B-27. For experiments including Trf B-27 was omitted as it, according to the media formulation provided by the manufacturer, contains unlabelled Trf that interferes with the experiment. Prior to imaging, cells were stained with 50 nM LysoTracker Deep Red for 30 min and 5 µg/ml Hoechst 33342 was added during the last 10 min of incubation. The cells were thereafter washed 1x, treated with 5 µg/ml FM 4–64 and imaged immediately (for labelling of cellular membrane) or after 10 min incubation at 37 °C (for labelling of cellular membrane and endocytic vesicles). Confocal images were acquired either on a Nikon C2+ confocal microscope equipped with a C2-DUVB GaAsP Detector Unit and using an oil-immersion 60 × 1.4 Nikon APO objective (Nikon Instruments, Amsterdam, Netherlands), or on a home-built Thorlabs CLS system equipped with a Galvo:Resonant scanner, a Multi-Channel Fiber-Coupled laser source and High-Sensitivity GaAsP PMT detectors recording onto ThorImageLS software (Thorlabs Inc, New Jersey, U.S.A.). The scanner unit was mounted onto a Leica DMIRB microscope equipped with an oil immersion 63x NA 1.47 Leica HCX PL APO objective for imaging and co-localisation analysis, or a 40x NA 0.55 Leica N PLAN L CORR air objective for quantification of peptide uptake. The sample was excited and detected sequentially with appropriate excitation laser lines and emission filters.
Images were captured with an open pinhole, corresponding to 7.8 airy units (AUs), in order to sample intensity from intracellular peptide throughout the full thickness of the cells. First, to determine an accurate sampling depth, images were acquired at three focal planes separated by 1 µm between each and analysed for matched summed intracellular intensity. Next, images were acquired with identical settings from a field of view with on average 25 cells/image. […] To obtain the total Aβ emission intensity per cell, all pixel values were summed and divided by the total number of cells in the image (the cell number was determined from the number of nuclei visible in the Hoechst emission channel). […] The mean intensity per pixel was calculated and related to concentration by performing a linear regression of mean intensity from three samples per concentration. The imaging depth was calculated based on imaging parameters and objective specifications generating a point spread function (PSF) for the focal spot. The resulting voxel size was calculated to be 740 nm in the axial direction, whereby 2.5x this voxel was determined to be representative of the sampling probe depth. […]

SH-SY5Y cells [2] = assay: Aβ uptake under pharmacological inhibition of endocytic mechanisms (flow cytometry); assay type: cell-based, human; details: for effect of CPZ on Aβ uptake: 5 µg/ml CPZ; for reduction in Aβ uptake with cytochalasin A or D: 10 µM cytochalasin A or 25 µg/ml cytochalasin D
Description: Flow cytometry was used to quantify cellular uptake. […] For experiments including Trf B-27 was omitted, as outlined above. […] All samples were kept on ice until they were analysed on a Guava EasyCyte 8HT (Millipore, Darmstadt, Germany) that automatically retrieves samples from a 96-well plate. In order to exclude effects due to difference in delay time we used mixed order of analysis, loading only a few samples at a time with the remaining samples kept on ice. The cell counting gate was determined using propidium iodide (0.5 µM, not washed away prior to analysis) and calcein-AM (10 nM, 15 min staining) to distinguish live and dead cells, and for each sample 5,000 cells from within the live gate were counted and analysed. HF488, AlexaFluor488, EGFP and calcein-AM were excited by a 488 nm laser and their fluorescence was detected through a 525/30 nm filter. Propidium iodide and mRFP were excited by the 488 nm laser but detected through a 692/46 nm filter. HF647 and AlexaFluor647 were excited with a 635 nm laser and detected through a 661/19 nm filter. Compensation was performed to adjust for bleed through in experiments including mRFP. Mean cellular uptake was estimated as the average fluorescence intensity of all cells gated within the live region and all individual experiments were performed with three technical replicates (n = 3) unless else is stated. The average fluorescence intensity was baseline corrected by subtracting the signal for unstained cells.
Endocytic mechanisms were also perturbed by treatment of cells with pharmacological inhibitors. Stock solutions of cytochalasin A, cytochalasin D, dynasore, wortmannin and IPA-3 were prepared in DMSO and diluted in serum-free cell culture media supplemented with 30 mM HEPES on the day of the experiment. The final DMSO concentration added to the cells was kept <0.1% and matched for the control. […] The cells were centrifuged 1000 * g for 5 min at 4 °C, washed 3x with ice-cold serum-free medium, followed by detachment and immediate flow cytometry analysis, as detailed above. […] Only the live cells were included in the analysis. Trf was used as a positive control for clathrin-mediated endocytosis. Due to the rapid uptake and recycling of internalized Trf we adopted an optimized protocol with sufficiently short Trf incubation times. First, to remove the quantities of membrane-bound Trf that originate from the serum component of the complete culture medium the cells were washed 3x in serum-free medium. The cells were then subjected to the inhibitors as described above and thereafter exposed to a 5 min pulse of 5 µg/ml Trf. To remove externally bound fluorescently labelled Trf the cells were thereafter washed (3x/2 min) in ice-cold acidic buffer (0.1 M Glycine-HCl buffer pH 2.5 with 150 mM NaCl)[35] whilst kept on ice. The cells were then harvested for flow cytometry analysis, and analysed one sample at a time with mixed order of analysis whilst keeping the remaining samples on ice.

[3] = 1 µM HF488-labelled Aβ 1 h, 4 independent experiments in triplicate
[4] = 30 min pre-incubation, 1 µM Aβ 1 h, n = 3

Substance | number of internalised Aβ peptides per cell (rounded) (SH-SY5Y cells [1]) | intravesicular Aβ concentration (SH-SY5Y cells [1]) | effect of CPZ on Aβ uptake (SH-SY5Y cells [2]; [3]) | reduction in Aβ uptake with IPA-3 and wortmannin (SH-SY5Y cells [2]; 10 µM IPA-3 or 25 nM wortmannin, 30 min pre-incubation, 1 µM Aβ 1 h, n = 3) | reduction in Aβ uptake with cytochalasin A or D (SH-SY5Y cells [2]; [4]) | effect of dynasore on Aβ uptake (SH-SY5Y cells [2]; 80 µM dynasore, 30 min pre-incubation, 1 µM HF488-labelled Aβ 1 h, 4 independent experiments in triplicate, ANOVA with Bonferroni)
Aβ(1–40): Synthetic 40 residue amyloid-β peptide conjugated to HiLyte Fluor HF488 (or HF647) at the N-terminus, from Anaspec | 400,000 molecules per cell and ~ 400,000 molecules per cell | ~ 60 µM | reductions | ~ 50% | ~ 30% | –
Aβ(1–42): Synthetic 42 residue amyloid-β peptide conjugated to HiLyte Fluor HF488 (or HF647) at the N-terminus, from Anaspec | 800,000 molecules per cell and ~ 800,000 molecules per cell | ~ 140 µM | impaired to a greater extent than that of Aβ(1–40) | – | ~ 70% | statistically significantly reduced
